From patent US12643887B2, “Heterocyclic derivatives with cardiomyocyte proliferation activity for treatment of heart diseases” (Tongji University, priority 2019, dated 2026)
pIC50: −log10 of the molar value.

Legend:
[1] = test system: Neonatal Rat Ventricular Myocytes (NRVMs); test: Myocyte proliferation assay (EdU assay) in neonatal rat ventricular myocytes; format: cell-based; conditions: growth relative to blank myocyte growth without compound added; for Avg 1 uM (average myocyte proliferation): compound 1 uM; for Avg 3 uM (average myocyte proliferation): compound 3 uM; for Avg 10 uM (average myocyte proliferation): compound 10 uM
In short: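 After 36 h compound exposure (1, 3 or 10 uM in 6% FBS/ITS DMEM, following 24 h low-serum culture), NRVMs were pulsed with EdU for 12 h. Proliferation scored by automated confocal imaging of EdU click chemistry, ab8295 immunostaining and DAPI nuclei in fixed cultures.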

human HIPK2 = molecular target: T1, human HIPK2 (Homo sapiens, UniProt Q9H2X6); test: HIPK2 enzyme assay (ADP-Glo); format: biochemical; conditions: ADP-Glo, ATP 5 μM; read-out: HIPK2 IC50
T1 construct: Recombinant human HIPK2 (1-640); GST (N); purchased SignalChem H04-11BG; host or cells: Sf9 insect cells
T1 sequence (Q9H2X6 1-640): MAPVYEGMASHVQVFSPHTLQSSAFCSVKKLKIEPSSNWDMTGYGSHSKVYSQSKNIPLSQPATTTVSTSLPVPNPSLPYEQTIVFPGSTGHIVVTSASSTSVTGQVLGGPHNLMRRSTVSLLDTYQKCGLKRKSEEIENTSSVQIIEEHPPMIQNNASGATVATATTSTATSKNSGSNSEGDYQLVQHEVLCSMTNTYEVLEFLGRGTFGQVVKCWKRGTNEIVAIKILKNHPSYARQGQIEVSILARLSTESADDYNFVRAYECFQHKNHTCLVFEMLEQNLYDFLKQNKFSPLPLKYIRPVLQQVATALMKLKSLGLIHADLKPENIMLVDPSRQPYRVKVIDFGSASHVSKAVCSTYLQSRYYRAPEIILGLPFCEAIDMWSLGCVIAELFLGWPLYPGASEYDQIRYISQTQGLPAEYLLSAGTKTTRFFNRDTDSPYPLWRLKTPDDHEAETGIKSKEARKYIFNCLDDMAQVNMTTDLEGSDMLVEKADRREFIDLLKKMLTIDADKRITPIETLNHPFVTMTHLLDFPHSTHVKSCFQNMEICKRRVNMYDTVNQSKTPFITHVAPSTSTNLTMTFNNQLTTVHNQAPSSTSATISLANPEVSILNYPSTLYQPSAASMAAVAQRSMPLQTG
In short: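 GST-tagged HIPK2 (1-640) from Sf9, 1 nM, preincubated 30 min at 25° C with inhibitor in 40 mM Tris pH 7.5, 20 mM MgCl2. Reaction ran 90 min at 25° C with GST-MBP substrate at 0.05 mg/ml and 5 μM ATP. ADP-Glo luminescence; IC50 by four-parameter logistic fit.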

SMILES | Avg 1 uM (average myocyte proliferation) [1] | Avg 3 uM (average myocyte proliferation) [1] | pIC50 (human HIPK2) | Avg 10 uM (average myocyte proliferation) [1]
NC(=O)CCN(C1=N/C(=C\c2ccc3c(c2)OCO3)C(=O)N1)c1ccccc1 [Example 36, (Z)-3-((4-(benzo[d][1,3]dioxol-5-ylmethylene)-5-oxo-4,5-dihydro-1H-imidazol-2-yl)(phenyl)amino)propanamide] | * (<10% growth relative to blank myocyte growth without compound added.) | ** (10%-50%) | < 5.00 | –
CN(C1=N/C(=C\c2ccc3c(c2)OCO3)C(=O)N1)c1ccc(N)cc1 [Example 37, (Z)-2-((4-aminophenyl)(methyl)amino)-5-(benzo[d][1,3]dioxol-5-ylmethylene)-3,5-dihydro-4H-imidazol-4-one] | *** (>50%) | ** (10%-50%) | < 5.00 | ** (10%-50%)
COc1ccc(N(C)C2=N/C(=C\c3ccc4ncsc4c3)C(=O)N2)cc1 [Example 38, (Z)-5-(benzo[d]thiazol-6-ylmethylene)-2-((4-methoxyphenyl)(methyl)amino)-3,5-dihydro-4H-imidazol-4-one] | *** (>50%) | ** (10%-50%) | 5.00 to 6.00 | *** (>50%)
O=C1NC(N(CC2CC2)c2ccccc2)=N/C1=C\c1ccc2c(c1)OCCO2 [Example 39, (Z)-2-((cyclopropylmethyl)(phenyl)amino)-5-((2,3-dihydrobenzo[b][1,4]dioxin-6-yl)methylene)-3,5-dihydro-4H-imidazol-4-one] | *** (>50%) | ** (10%-50%) | < 5.00 | * (<10% growth relative to blank myocyte growth without compound added.)
O=C1NC(Nc2ccc(Cl)cc2)=N/C1=C\c1ccc2ncsc2c1 [Example 40, (Z)-5-(benzo[d]thiazol-6-ylmethylene)-2-((4-chlorophenyl)amino)-3,5-dihydro-4H-imidazol-4-one] | *** (>50%) | *** (>50%) | 5.00 to 6.00 | *** (>50%)
O=C1NC(N(Cc2ccccc2)c2ccccc2)=N/C1=C\c1ccc2ncsc2c1 [Example 41, (Z)-5-(benzo[d]thiazol-6-ylmethylene)-2-(benzyl(phenyl)amino)-3,5-dihydro-4H-imidazol-4-one] | * (<10% growth relative to blank myocyte growth without compound added.) | * (<10% growth relative to blank myocyte growth without compound added.) | 5.00 to 6.00 | ** (10%-50%)
O=C1/C(=C/c2ccc3ncsc3c2)N=C(N(Cc2ccccc2)c2ccccc2)N1Cc1ccccc1 [Example 42, (Z)-5-(benzo[d]thiazol-6-ylmethylene)-3-benzyl-2-(benzyl(phenyl)amino)-3,5-dihydro-4H-imidazol-4-one] | ** (10%-50%) | ** (10%-50%) | < 5.00 | *** (>50%)
CN(C1=N/C(=C\c2ccc3ncsc3c2)C(=O)N1)c1ccc([N+](=O)[O-])cc1 [Example 43, (Z)-5-(benzo[d]thiazol-6-ylmethylene)-2-(methyl(4-nitrophenyl)amino)-3,5-dihydro-4H-imidazol-4-one] | ** (10%-50%) | ** (10%-50%) | < 5.00 | ** (10%-50%)
CN(C1=N/C(=C\c2ccc3ncsc3c2)C(=O)N1)c1ccc(N)cc1 [Example 44, (Z)-2-((4-aminophenyl)(methyl)amino)-5-(benzo[d]thiazol-6-ylmethylene)-3,5-dihydro-4H-imidazol-4-one] | *** (>50%) | ** (10%-50%) | 5.00 to 6.00 | ** (10%-50%)
CC(C)NC1=N/C(=C\c2ccc3ncsc3c2)C(=O)N1C [Example 45, (Z)-5-(benzo[d]thiazol-6-ylmethylene)-2-(isopropylamino)-3-methyl-3,5-dihydro-4H-imidazol-4-one] | ** (10%-50%) | ** (10%-50%) | 5.00 to 6.00 | ** (10%-50%)
Cn1cnc2ccc(/C=C3\N=C(Nc4ccccc4)NC3=O)cc21 [Example 46, (Z)-5-((1-methyl-1H-benzo[d]imidazol-6-yl)methylene)-2-(phenylamino)-3,5-dihydro-4H-imidazol-4-one] | *** (>50%) | ** (10%-50%) | 6.00 to 7.00 | *** (>50%)
O=C1NC(Nc2ccc3ncsc3c2)=N/C1=C\c1ccc2c(c1)OCO2 [Example 47, (Z)-5-(benzo[d][1,3]dioxol-5-ylmethylene)-2-(benzo[d]thiazol-6-ylamino)-3,5-dihydro-4H-imidazol-4-one] | *** (>50%) | *** (>50%) | < 5.00 | *** (>50%)
O=C1NC(Nc2ccc3ncsc3c2)=N/C1=C\c1ccc2ncsc2c1 [Example 48, (Z)-2-(benzo[d]thiazol-6-ylamino)-5-(benzo[d]thiazol-6-ylmethylene)-3,5-dihydro-4H-imidazol-4-one] | *** (>50%) | *** (>50%) | > 7.00 | *** (>50%)
CC(C)NC1=N/C(=C\c2ccc3scnc3c2)C(=O)N1 [Example 49, (Z)-5-(benzo[d]thiazol-5-ylmethylene)-2-(isopropylamino)-3,5-dihydro-4H-imidazol-4-one] | * (<10% growth relative to blank myocyte growth without compound added.) | ** (10%-50%) | < 5.00 | *** (>50%)
O=C1NC(NC23CC4CC(CC(C4)C2)C3)=N/C1=C\c1ccc2scnc2c1 [Example 50, (Z)-2-(adamantan-1-ylamino)-5-(benzo[d]thiazol-5-ylmethylene)-3,5-dihydro-4H-imidazol-4-one] | * (<10% growth relative to blank myocyte growth without compound added.) | * (<10% growth relative to blank myocyte growth without compound added.) | < 5.00 | –
O=C1NC(Nc2ccccc2)=N/C1=C\c1ccc2[nH]ccc2c1 [Example 51, (Z)-5-((1H-indol-5-yl)methylene)-2-(phenylamino)-3,5-dihydro-4H-imidazol-4-one] | ** (10%-50%) | ** (10%-50%) | < 5.00 | ** (10%-50%)
O=C1NC(Nc2ccccc2)=N/C1=C\c1ccc2occc2c1 [Example 52, (Z)-5-(benzofuran-5-ylmethylene)-2-(phenylamino)-3,5-dihydro-4H-imidazol-4-one] | ** (10%-50%) | ** (10%-50%) | < 5.00 | ** (10%-50%)
O=C1NC(Nc2ccccc2)=N/C1=C\c1ccc2ncccc2c1 [Example 53, (Z)-2-(phenylamino)-5-(quinolin-6-ylmethylene)-3,5-dihydro-4H-imidazol-4-one] | ** (10%-50%) | *** (>50%) | 6.00 to 7.00 | ** (10%-50%)
O=C1NC(Nc2ccccc2)=N/C1=C\c1ccc2cn[nH]c2c1 [Example 54, (Z)-5-((1H-indazol-6-yl)methylene)-2-(phenylamino)-3,5-dihydro-4H-imidazol-4-one] | * (<10% growth relative to blank myocyte growth without compound added.) | * (<10% growth relative to blank myocyte growth without compound added.) | < 5.00 | –
O=C1NC(Nc2ccccc2)=N/C1=C\c1ccc2[nH]ncc2c1 [Example 55, (Z)-5-((1H-indazol-5-yl)methylene)-2-(phenylamino)-3,5-dihydro-4H-imidazol-4-one] | * (<10% growth relative to blank myocyte growth without compound added.) | * (<10% growth relative to blank myocyte growth without compound added.) | 6.00 to 7.00 | –
